From ChEMBL document CHEMBL1135006, “Synthesis and biological evaluation of novel 2-(1H-imidazol-4-yl)cyclopropane carboxylic acids: key intermediates for H3 histamine receptor ligands” (Bioorg Med Chem Lett, 2002)

Target: Histamine H3 receptor (Rattus norvegicus) (UniProt Q9QYN8)
Assay: Inhibition of the specific binding of [3H](R)-alpha-methylhistamine ([3H]RMHA) to Histamine H3 receptor in rat brain membranes at 10e-8 M

Histamine H3 receptor (Rattus norvegicus), sequence (Q9QYN8 whole entry, looked up): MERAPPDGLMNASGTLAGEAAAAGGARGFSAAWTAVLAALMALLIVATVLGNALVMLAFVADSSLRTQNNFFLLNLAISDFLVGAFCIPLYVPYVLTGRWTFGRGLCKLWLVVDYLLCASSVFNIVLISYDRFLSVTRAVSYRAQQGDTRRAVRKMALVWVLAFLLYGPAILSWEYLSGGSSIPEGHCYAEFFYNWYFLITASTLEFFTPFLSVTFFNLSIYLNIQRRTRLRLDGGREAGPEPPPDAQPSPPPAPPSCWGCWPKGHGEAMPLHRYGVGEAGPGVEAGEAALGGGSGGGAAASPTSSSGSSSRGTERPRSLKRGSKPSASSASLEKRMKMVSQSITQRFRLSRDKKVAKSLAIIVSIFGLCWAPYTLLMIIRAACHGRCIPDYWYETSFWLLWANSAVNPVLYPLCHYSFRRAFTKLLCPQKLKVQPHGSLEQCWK

Work on C/C=C\CO yielded an inhibition of 3.7%.
O=C(O)C1C[C@@H]1c1c[nH]cn1 (single isomer, unassigned) was tested, and the inhibition was 11.6%.
C/C=C/CO showed an inhibition of 10%.
OC/C=C\c1ccccc1 gave an inhibition of 4.3%.
For OC/C=C/c1ccccc1, the inhibition was 33.5%.
